Experimental data reported in ChEMBL document CHEMBL4229471, “Antiprotozoal and cysteine proteases inhibitory activity of dipeptidyl enoates” (Bioorg Med Chem, 2018).
pIC50, pKi: −log10 of the molar value. Calls of active or inactive are those of the source. The rule behind the calls is not given here.

What was measured:
[1] = biological target: T1, Falcipain 2 (Plasmodium falciparum) (UniProt Q9N6S8); assay: Reversible inhibition of Plasmodium falciparum falcipain-2 using Cbz-Phe-Arg-AMC as substrate pretreated for 30 mins followed by substrate addition and measured for 30 mins by dialysis method
T1 sequence (whole entry): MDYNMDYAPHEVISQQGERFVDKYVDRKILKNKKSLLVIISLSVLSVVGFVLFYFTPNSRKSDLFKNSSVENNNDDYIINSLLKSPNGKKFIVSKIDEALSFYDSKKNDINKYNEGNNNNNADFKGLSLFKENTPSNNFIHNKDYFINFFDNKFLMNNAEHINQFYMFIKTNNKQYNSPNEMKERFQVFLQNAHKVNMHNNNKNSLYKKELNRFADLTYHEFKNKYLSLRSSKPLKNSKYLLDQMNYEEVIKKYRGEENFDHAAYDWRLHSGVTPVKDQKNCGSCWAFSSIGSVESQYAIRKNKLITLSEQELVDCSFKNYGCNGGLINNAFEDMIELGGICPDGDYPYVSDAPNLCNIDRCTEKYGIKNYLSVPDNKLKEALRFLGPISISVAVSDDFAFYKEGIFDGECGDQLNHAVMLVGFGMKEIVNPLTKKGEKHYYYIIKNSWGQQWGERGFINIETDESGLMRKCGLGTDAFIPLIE

[2] = biological target: Rhodesain (Trypanosoma brucei rhodesiense) (UniProt Q95PM0); assay: Reversible inhibition of Trypanosoma brucei rhodesiense rhodesain using Cbz-Phe-Arg-AMC as substrate pretreated for 30 mins followed by substrate addition and measured for 30 mins by dialysis method
[3] = biological target: T2, Cathepsin B (Homo sapiens, UniProt P07858); assay: Inhibition of human cathepsin B using Cbz-Phe-Arg-AMC as substrate
[4] = biological target: Rhodesain (Trypanosoma brucei rhodesiense) (UniProt Q95PM0); assay: Irreversible inhibition of Trypanosoma brucei rhodesiense rhodesain using Cbz-Phe-Arg-AMC as substrate pretreated for 30 mins followed by substrate addition and measured for 30 mins by dialysis method
[5] = biological target: Rhodesain (Trypanosoma brucei rhodesiense) (UniProt Q95PM0); assay: Inhibition of Trypanosoma brucei rhodesiense rhodesain at 20 uM using Cbz-Phe-Arg-AMC as substrate measured for 30 mins by fluorescence method relative to control
[6] = biological target: Cruzipain (Trypanosoma cruzi) (UniProt P25779); assay: Irreversible inhibition of Trypanosoma cruzi cruzain pretreated for 30 mins followed by substrate addition and measured for 30 mins by dialysis method
[7] = biological target: Rhodesain (Trypanosoma brucei rhodesiense, UniProt Q95PM0); assay: Inhibition of Trypanosoma brucei rhodesiense rhodesain using Cbz-Phe-Arg-AMC as substrate measured for 30 mins by fluorescence method
[8] = biological target: Cruzipain (Trypanosoma cruzi) (UniProt P25779); assay: Inhibition of Trypanosoma cruzi cruzain assessed as second-order rate constant
[9] = biological target: Cruzipain (Trypanosoma cruzi, UniProt P25779); assay: Inhibition of Trypanosoma cruzi cruzain
[10] = biological target: T1, Falcipain 2 (Plasmodium falciparum); assay: Irreversible inhibition of Plasmodium falciparum falcipain-2 using Cbz-Phe-Arg-AMC as substrate pretreated for 30 mins followed by substrate addition and measured for 30 mins by dialysis method
[11] = biological target: T3, Procathepsin L (Homo sapiens, UniProt P07711); assay: Inhibition of human cathepsin L at 20 uM using Cbz-Phe-Arg-AMC as substrate relative to control
Target sequence in this assay (P07711 114-333 limits assumed): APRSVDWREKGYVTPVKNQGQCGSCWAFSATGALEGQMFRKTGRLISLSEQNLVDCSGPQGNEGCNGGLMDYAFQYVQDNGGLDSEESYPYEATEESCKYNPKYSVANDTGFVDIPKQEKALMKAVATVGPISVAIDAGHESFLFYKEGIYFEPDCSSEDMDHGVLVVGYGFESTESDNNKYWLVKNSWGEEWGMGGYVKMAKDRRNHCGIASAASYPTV

[12] = biological target: T3, Procathepsin L; assay: Inhibition of human cathepsin L using Cbz-Phe-Arg-AMC as substrate
Target sequence in this assay (P07711 whole entry): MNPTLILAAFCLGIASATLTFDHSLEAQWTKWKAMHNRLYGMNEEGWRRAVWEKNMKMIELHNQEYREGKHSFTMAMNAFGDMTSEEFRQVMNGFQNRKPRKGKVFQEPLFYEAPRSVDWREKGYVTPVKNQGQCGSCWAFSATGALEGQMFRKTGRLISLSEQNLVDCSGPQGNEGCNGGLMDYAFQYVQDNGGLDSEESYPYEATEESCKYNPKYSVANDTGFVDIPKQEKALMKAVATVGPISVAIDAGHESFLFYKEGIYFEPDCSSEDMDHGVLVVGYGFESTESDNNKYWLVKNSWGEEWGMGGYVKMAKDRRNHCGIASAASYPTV

[13] = biological target: Cruzipain (Trypanosoma cruzi) (UniProt P25779); assay: Reversible inhibition of Trypanosoma cruzi cruzain pretreated for 30 mins followed by substrate addition and measured for 30 mins by dialysis method
[14] = biological target: T2, Cathepsin B; assay: Inhibition of human cathepsin B at 20 uM using Cbz-Phe-Arg-AMC as substrate relative to control
[15] = biological target: T3, Procathepsin L; assay: Inhibition of human cathepsin L assessed as second order rate constant using Cbz-Phe-Arg-AMC as substrate
Target sequence in this assay (P07711 114-333 limits assumed): as the sequence (P07711 114-333 limits assumed) above

[16] = biological target: Rhodesain (Trypanosoma brucei rhodesiense) (UniProt Q95PM0); assay: Inhibition of Trypanosoma brucei rhodesiense rhodesain assessed as second-order rate constant using Cbz-Phe-Arg-AMC as substrate measured for 30 mins by fluorescence method
[17] = Cytotoxicity against human HepG2 cells assessed as cell viability at 1 uM measured after 24 hrs by spectrophotometric method relative to control; assay type: cell-based; conditions: read-out: Activity
[18] = biological target: T1, Falcipain 2 (Plasmodium falciparum); assay: Inhibition of Plasmodium falciparum falcipain-2 assessed as second-order rate constant using Cbz-Phe-Arg-AMC as substrate measured for 15 mins by spectrofluorimetric method
[19] = biological target: T4, Falcipain 2 (Plasmodium falciparum, UniProt Q9N6S8); assay: Inhibition of Plasmodium falciparum falcipain-2 using Cbz-Phe-Arg-AMC as substrate measured for 15 mins by spectrofluorimetric method
T4 sequence (Q9N6S8 whole entry): T1 sequence (whole entry)

[20] = system: Leishmania donovani; assay: Antileishmanial activity against Leishmania donovani MHOM/ET/67/L82 axenic amastigotes after 70 hrs by alamar blue staining based fluorescence assay; assay type: functional, organism-based; conditions: MHOM/ET/67/L82, 70 h
[21] = biological target: T1, Falcipain 2 (Plasmodium falciparum); assay: Inhibition of Plasmodium falciparum falcipain-2 at 20 uM using Cbz-Phe-Arg-AMC as substrate measured for 15 mins by spectrofluorimetric method relative to control
[22] = system: Plasmodium falciparum; assay: Antimalarial activity against erythrocytic stage of synchronized Plasmodium falciparum Dd2 after 48 hrs by Picogreen dye based fluorescence assay; assay type: functional, organism-based; conditions: Dd2, 48 h
[23] = system: Trypanosoma brucei rhodesiense; assay: Antiprotozoal activity against patient derived Trypanosoma brucei rhodesiense STIB 900 bloodstream form after 70 hrs by Alamar Blue assay; assay type: functional, organism-based; conditions: STIB 900, 70 h
[24] = biological target: T2, Cathepsin B; assay: Inhibition of human cathepsin B assessed as second order rate constant using Cbz-Phe-Arg-AMC as substrate
[25] = system: Trypanosoma cruzi; assay: Antitrypanosomal activity against Trypanosoma cruzi Tulahuen strain C2C4 amastigote forms harboring LacZ infected in rat L6 cells after 96 hrs by CPRG/Nonidet reagent based photometric method; assay type: functional, organism-based; conditions: Tulahuen strain C2C4, L6, 96 h
[26] = biological target: Cruzipain (Trypanosoma cruzi) (UniProt P25779); assay: Inhibition of Trypanosoma cruzi cruzain at 20 uM relative to control

Cruzipain (Trypanosoma cruzi), sequence (P25779 123-467 limits assumed): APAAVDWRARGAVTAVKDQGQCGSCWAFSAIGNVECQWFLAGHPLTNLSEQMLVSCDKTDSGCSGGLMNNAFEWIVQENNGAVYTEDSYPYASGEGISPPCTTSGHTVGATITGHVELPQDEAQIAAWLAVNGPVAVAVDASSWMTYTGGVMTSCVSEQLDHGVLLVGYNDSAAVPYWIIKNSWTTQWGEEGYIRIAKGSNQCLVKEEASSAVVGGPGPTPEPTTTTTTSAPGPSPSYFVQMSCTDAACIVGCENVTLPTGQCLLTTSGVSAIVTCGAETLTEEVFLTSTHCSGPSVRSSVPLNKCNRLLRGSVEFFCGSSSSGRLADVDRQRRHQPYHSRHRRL
Rhodesain (Trypanosoma brucei rhodesiense), sequence (Q95PM0 1-450): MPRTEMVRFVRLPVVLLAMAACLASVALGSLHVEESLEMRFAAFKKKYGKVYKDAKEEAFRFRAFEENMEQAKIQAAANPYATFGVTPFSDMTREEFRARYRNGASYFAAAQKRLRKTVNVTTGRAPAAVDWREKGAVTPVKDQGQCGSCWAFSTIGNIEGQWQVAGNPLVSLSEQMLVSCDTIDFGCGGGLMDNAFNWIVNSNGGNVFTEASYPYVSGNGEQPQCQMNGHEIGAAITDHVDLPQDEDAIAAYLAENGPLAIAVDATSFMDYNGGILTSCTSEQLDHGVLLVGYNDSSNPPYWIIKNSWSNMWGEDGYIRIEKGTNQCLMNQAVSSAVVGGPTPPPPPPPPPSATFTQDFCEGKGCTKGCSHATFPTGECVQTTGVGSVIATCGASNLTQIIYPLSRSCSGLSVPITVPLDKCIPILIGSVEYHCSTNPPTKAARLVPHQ
Rhodesain, sequence (Q95PM0 whole entry): as the sequence (Q95PM0 1-450) above
Cruzipain, sequence (P25779 whole entry): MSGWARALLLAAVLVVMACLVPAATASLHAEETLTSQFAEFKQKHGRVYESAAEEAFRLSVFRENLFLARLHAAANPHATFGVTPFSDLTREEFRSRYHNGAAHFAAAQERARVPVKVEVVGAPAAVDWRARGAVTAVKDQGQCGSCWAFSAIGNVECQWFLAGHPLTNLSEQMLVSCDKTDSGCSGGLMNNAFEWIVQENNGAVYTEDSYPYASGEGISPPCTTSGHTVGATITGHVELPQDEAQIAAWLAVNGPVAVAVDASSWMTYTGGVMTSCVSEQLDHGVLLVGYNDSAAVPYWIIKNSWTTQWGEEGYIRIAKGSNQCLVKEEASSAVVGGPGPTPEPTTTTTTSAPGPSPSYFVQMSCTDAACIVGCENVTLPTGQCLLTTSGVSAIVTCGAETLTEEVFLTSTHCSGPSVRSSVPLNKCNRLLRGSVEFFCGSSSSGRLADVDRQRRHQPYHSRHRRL

CCOC(=O)/C=C/C=C/C(=O)[C@H](CCc1ccccc1)NC(=O)[C@H](Cc1ccccc1)NC(=O)N1CCOCC1
inhibition [1]: Active | inhibition [2]: Active | pIC50 [3]: 5.65 | pKi [3]: 5.85 | inhibition [4]: Active | inhibition [5]: 98% | inhibition [6]: Active | pIC50 [7]: 6.25 | K [8]: 0.56 M⁻¹ s⁻¹ | pIC50 [9]: < 5.70 | inhibition [10]: Active | inhibition [11]: 99% | pIC50 [12]: 5.83 | pKi [12]: 3.11 | inhibition [13]: Active | inhibition [14]: 90%

CCOC(=O)/C=C/C(=O)[C@H](CCc1ccccc1)NC(=O)[C@H](Cc1ccccc1)NC(=O)OCc1ccccc1
K [15]: 45300 M⁻¹ s⁻¹ | K [16]: 1.27e+06 M⁻¹ s⁻¹ | inhibition [5]: 100% | pIC50 [7]: 7.52 | viability at 24 h, 1 µM [17]: 100% | K [18]: 17100 M⁻¹ s⁻¹ | pIC50 [19]: 7.22 | pIC50 [20]: 4.90 | inhibition [11]: 100% | inhibition [21]: 100% | pIC50 [22]: 4.79 | inhibition [14]: 100% | pIC50 [23]: 6.03 | K [24]: 45500 M⁻¹ s⁻¹ | pIC50 [25]: 4.70 | inhibition [26]: 99%

CCOC(=O)/C=C/C(=O)[C@H](CCc1ccccc1)NC(=O)[C@H](CC(C)C)NC(=O)OCc1ccccc1
K [15]: 29900 M⁻¹ s⁻¹ | K [16]: 116000 M⁻¹ s⁻¹ | inhibition [5]: 98% | K [8]: 60800 M⁻¹ s⁻¹ | viability at 24 h, 1 µM [17]: 100% | pIC50 [9]: 7.10 | K [18]: 6000 M⁻¹ s⁻¹ | pIC50 [19]: 6.24 | pIC50 [20]: 7.05 | inhibition [11]: 100% | inhibition [21]: 98% | pIC50 [12]: 6.59 | pIC50 [22]: 5.79 | inhibition [14]: 100% | pIC50 [23]: 5.63 | K [24]: 42400 M⁻¹ s⁻¹ | pIC50 [25]: 5.15 | inhibition [26]: 100%
